# Results from patent US20040028749A1, “Treating inflammation and associated complications” (priority 2000, published 2004).
# Columns and labels:
# [1] = biological target: T1, EPO (Sus scrofa, UniProt P80550); assay: Stopped-flow kinetics of NO with EPO compounds I and II; assay type: biochemical; details: 10 μM H2O2
# T1 construct: from tissue; host or cells: porcine whole blood (leukocytes/eosinophils)
# T1 sequence (P80550 143-704): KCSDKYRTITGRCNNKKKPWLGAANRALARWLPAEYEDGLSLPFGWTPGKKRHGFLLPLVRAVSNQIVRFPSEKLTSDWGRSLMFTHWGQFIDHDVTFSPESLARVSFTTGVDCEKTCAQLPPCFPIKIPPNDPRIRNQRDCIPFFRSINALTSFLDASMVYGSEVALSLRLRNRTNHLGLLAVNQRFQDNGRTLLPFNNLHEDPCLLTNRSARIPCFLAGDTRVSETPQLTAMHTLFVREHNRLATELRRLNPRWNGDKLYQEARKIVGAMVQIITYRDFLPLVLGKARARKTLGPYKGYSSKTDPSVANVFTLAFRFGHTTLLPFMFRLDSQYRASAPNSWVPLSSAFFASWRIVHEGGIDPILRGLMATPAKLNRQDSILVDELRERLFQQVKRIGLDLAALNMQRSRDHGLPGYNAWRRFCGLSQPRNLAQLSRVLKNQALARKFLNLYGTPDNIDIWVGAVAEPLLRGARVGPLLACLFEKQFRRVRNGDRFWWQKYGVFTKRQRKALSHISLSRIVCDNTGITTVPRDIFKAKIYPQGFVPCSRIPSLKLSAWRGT
# Experimental: […] EPO was isolated from porcine whole blood obtained fresh at the slaughterhouse as described by Jorg et al. (1982) Biochim Biophys Acta 701:185-191. EPO was assayed by guaiacol oxidation (see Klebanoff et al. (1984) Methods Enzymol. 105:399-403). […] The concentration of the MPO dimer was calculated as half the indicated concentration of heme-like chromophore. Bovine LPO was obtained from Worthington Biochemistry Corporation (Lakewood, N.J.) and used without further purification.
# Stopped-flow spectroscopy was used to investigate how NO interacts with intermediate forms of EPO and LPO during steady-state catalysis. […] The time courses for the formation and decay of compound II of both EPO and LPO in the absence of NO were examined by monitoring the absorbance change at 445 nm for EPO and at 430 nm for LPO. For both enzymes, the changes in absorbance that took place in the first 2 seconds of the reactions are shown and are attributed to the buildup of compound II. […] The subsequent decreases in absorbance at 455 and 430 nm observed for both enzymes were also fit to a single-exponential function with a rate constant of 0.005 s^−1 for EPO and 0.0005 s^−1 for LPO. […]
# The addition of NO to reaction mixtures of EPO or LPO results in dramatic effects on the rates of compound II buildup, duration, and decay, as assessed by stopped-flow spectroscopy. […]
# [2] = system: tracheal rings; assay: NO-mediated relaxation of preconstricted tracheal rings; design: species or system rat; details: absence of peroxidases
# Text: Normal rats were sacrificed and their trachea removed. Under the dissecting microscope, each trachea was freed of adventitia and fat tissue. A cylindrical airway segment of 3 mm length was isolated from the midtrachea of each animal and placed in a modified Krebs-Henseleit (KH) solution of the following composition (mM): NaCl, 118.2; NaHCO3, […], 4.6; KH2PO4, 1.2; MgSO4, 1.2; CaCl2 and dextrose, […], with a pH adjusted to 7.4. The solution was continuously aerated with 5% […] balanced with O2. […] Generated forces were continuously monitored and recorded on a rectilinear chart recorder. […]
# A cumulative concentration-response curve to bethanecol (3×10^−8 to 10^−3 M) was obtained for each cylinder. The concentration of bethanecol that elicited 50-75% of maximal response (ED 50-75) was determined. […] The percent relaxation from the precontracted state was calculated for each cylinder. The percent relaxation in response to EFS was calculated from the reduction in tension (in grams) in relation to baseline tension in the precontracted state, each tracheal segment serving as its own control (before and after EFS exposure). […]
# The effect of peroxidases on the concentration dependence of NO-mediated relaxation of preconstricted tracheal rings was quantified. […]
structure (smiles),measurement,setting,value
"[N]=O [NO, nitric oxide]",enhancement of rate of EPO compound II accumulation,[1],~25 fold
same,NO concentration at which relaxation reached a maximum,[2],~4 µM
